Reference: patent US10376499B2, “Combination therapy for treatment of resistant bacterial infections” (priority 2014, dated 2019)
In brackets after ≈: the same amount, converted by molar mass.

Tested on: A. baumannii
Test: MIC by broth microdilution (CLSI), panel of 60 A. baumannii clinical isolates (Example 1)

CN(C)[C@@H]1C(O)=C(C(N)=O)C(=O)[C@@]2(O)C(O)=C3C(=O)c4c(O)cccc4[C@@](C)(O)[C@H]3C[C@@H]12 [TET, tetracycline]
MIC50 (Acinetobacter baumannii): 16 µg/mL (≈ 36 µM) | MIC90 (Acinetobacter baumannii): > 32 µg/mL | MIC (Acinetobacter baumannii, strain ARC593, OXA-98): 2 µg/mL (≈ 4.5 µM) | MIC (Acinetobacter baumannii, strain ARC2058, OXA-95): 1 µg/mL (≈ 2.25 µM) | MIC (Acinetobacter baumannii, strain ARC2461, OXA-66, TEM-1): > 32 µg/mL | MIC (Acinetobacter baumannii, strain ARC2462, TEM-1, OXA-66): > 32 µg/mL | MIC (Acinetobacter baumannii, strain ARC2598, OXA*, TEM-1, OXA-113): > 32 µg/mL | MIC (Acinetobacter baumannii, strain ARC2635, OXA-65, OXA-40, TEM-1): 8 µg/mL (≈ 18 µM) | MIC (Acinetobacter baumannii, strain ARC2636, OXA-65, OXA-40, TEM-1): 16 µg/mL (≈ 36 µM) | MIC (Acinetobacter baumannii, strain ARC2674, SHV-5, OXA-113): > 32 µg/mL | MIC (Acinetobacter baumannii, strain ARC2675, SHV-5, OXA-113): 16 µg/mL (≈ 36 µM) | MIC (Acinetobacter baumannii, strain ARC2681, OXA-40, TEM-1, OXA-132): > 32 µg/mL | MIC (Acinetobacter baumannii, strain ARC2682, SHV-5, OXA-113): 8 µg/mL (≈ 18 µM) | MIC (Acinetobacter baumannii, strain ARC2777, OXA-172, TEM-1): 32 µg/mL (≈ 72 µM) | MIC (Acinetobacter baumannii, strain ARC2778, OXA-40, TEM-1, OXA-65): > 32 µg/mL | MIC (Acinetobacter baumannii, strain ARC2779 (A. baumannii/calcoaceticus complex), OXA-2, VIM-2): 2 µg/mL (≈ 4.5 µM) | MIC (Acinetobacter baumannii, strain ARC2780 (A. baumannii/calcoaceticus complex), OXA*, OXA-2, IMP-1): 2 µg/mL (≈ 4.5 µM) | MIC (Acinetobacter baumannii, strain ARC2782, OXA-66, OXA-23, TEM-1, PER-1): > 32 µg/mL | MIC (Acinetobacter baumannii, strain ARC2788, OXA-65, TEM-1): 4 µg/mL (≈ 9 µM) | MIC (Acinetobacter baumannii, strain ARC3484, TEM-1, OXA-23, OXA-64): > 32 µg/mL | MIC (Acinetobacter baumannii, strain ARC3485, OXA-82): 32 µg/mL (≈ 72 µM) | MIC (Acinetobacter baumannii, strain ARC3486, OXA-72, OXA-66, TEM-1): > 32 µg/mL | MIC (Acinetobacter baumannii, strain ARC3487, OXA-20, OXA-58, OXA-66): 16 µg/mL (≈ 36 µM) | MIC (Acinetobacter baumannii, strain ARC3488, OXA*, OXA-68): > 32 µg/mL | MIC (Acinetobacter baumannii, strain ARC3489, OXA*, OXA-68): > 32 µg/mL | MIC (Acinetobacter baumannii, strain ARC3490, TEM-1+, PSE-2, OXA-69): 8 µg/mL (≈ 18 µM) | MIC (Acinetobacter baumannii, strain ARC3491 (A. baumannii/calcoaceticus complex), OXA-215): 4 µg/mL (≈ 9 µM) | MIC (Acinetobacter baumannii, strain ARC3492, OXA-40, OXA-132, TEM-1): > 32 µg/mL | MIC (Acinetobacter baumannii, strain ARC3493, OXA-40, OXA-66): > 32 µg/mL | MIC (Acinetobacter baumannii, strain ARC3494, OXA-65): 2 µg/mL (≈ 4.5 µM) | MIC (Acinetobacter baumannii, strain ARC3495, OXA-40, OXA-109): > 32 µg/mL | MIC (Acinetobacter baumannii, strain ARC3513, TEM-1, OXA-23, OXA-65): 8 µg/mL (≈ 18 µM) | MIC (Acinetobacter baumannii, strain ARC3515, OXA-64, OXA-58): > 32 µg/mL | MIC (Acinetobacter baumannii, strain ARC3657, OXA-130): 8 µg/mL (≈ 18 µM) | MIC (Acinetobacter baumannii, strain ARC3658, OXA-66, PER-1, TEM-1, OXA-23): > 32 µg/mL | MIC (Acinetobacter baumannii, strain ARC3659, OXA-23, OXA*): 8 µg/mL (≈ 18 µM) | MIC (Acinetobacter baumannii, strain ARC3882, OXA-23, NDM-1, OXA-10*): 8 µg/mL (≈ 18 µM) | MIC (Acinetobacter baumannii, strain ARC5073, OXA-23, TEM-1, OXA-64, PER-1): > 32 µg/mL | MIC (Acinetobacter baumannii, strain ARC5074, GES*, TEM-1, OXA-51): 1 µg/mL (≈ 2.25 µM) | MIC (Acinetobacter baumannii, strain ARC5075, SHV-5, OXA-113): > 32 µg/mL | MIC (Acinetobacter baumannii, strain ARC5076, TEM-1, OXA-23, OXA-66): > 32 µg/mL | MIC (Acinetobacter baumannii, strain ARC5077, OXA*, OXA-72): > 32 µg/mL | MIC (Acinetobacter baumannii, strain ARC5079, OXA-72, OXA-65): 8 µg/mL (≈ 18 µM) | MIC (Acinetobacter baumannii, strain ARC5080, OXA-71, OXA-40): 16 µg/mL (≈ 36 µM) | MIC (Acinetobacter baumannii, strain ARC5081, OXA-94, OXA-23): 2 µg/mL (≈ 4.5 µM) | MIC (Acinetobacter baumannii, strain ARC5082, OXA-66, OXA-23): > 32 µg/mL | MIC (Acinetobacter baumannii, strain ARC5083, OXA-66, OXA-23): > 32 µg/mL | MIC (Acinetobacter baumannii, strain ARC5084, IMP-4(B), OXA-58, OXA-65): 2 µg/mL (≈ 4.5 µM) | MIC (Acinetobacter baumannii, strain ARC5085, OXA*, TEM-1): > 32 µg/mL | MIC (Acinetobacter baumannii, strain ARC5086, OXA*, TEM-1, OXA-72, OXA-66): > 32 µg/mL | MIC (Acinetobacter baumannii, strain ARC5087, OXA-66, OXA-23): > 32 µg/mL | MIC (Acinetobacter baumannii, strain ARC5088, OXA-20, OXA-58, OXA-66): 16 µg/mL (≈ 36 µM) | MIC (Acinetobacter baumannii, strain ARC5089, PER*, TEM-1, OXA-23, OXA-66): 4 µg/mL (≈ 9 µM) | MIC (Acinetobacter baumannii, strain ARC5091, OXA-82, OXA-23): 32 µg/mL (≈ 72 µM) | MIC (Acinetobacter baumannii, strain ARC5092, OXA-23, OXA-64): 32 µg/mL (≈ 72 µM)

colistin
MIC (strain ARC593, OXA-98): 0.5 µg/mL | MIC (strain ARC2058, OXA-95): 0.5 µg/mL | MIC (strain ARC2461, OXA-66, TEM-1): 0.125 µg/mL | MIC (strain ARC2462, TEM-1, OXA-66): 0.125 µg/mL | MIC (strain ARC2598, OXA*, TEM-1, OXA-113): 0.25 µg/mL | MIC (strain ARC2635, OXA-65, OXA-40, TEM-1): 0.25 µg/mL | MIC (strain ARC2636, OXA-65, OXA-40, TEM-1): 0.125 µg/mL | MIC (strain ARC2674, SHV-5, OXA-113): 0.25 µg/mL | MIC (strain ARC2675, SHV-5, OXA-113): 0.125 µg/mL | MIC (strain ARC2681, OXA-40, TEM-1, OXA-132): 0.25 µg/mL | MIC (strain ARC2682, SHV-5, OXA-113): 0.25 µg/mL | MIC (strain ARC2777, OXA-172, TEM-1): 0.5 µg/mL | MIC (strain ARC2778, OXA-40, TEM-1, OXA-65): 0.25 µg/mL | MIC (strain ARC2779 (A. baumannii/calcoaceticus complex), OXA-2, VIM-2): 0.25 µg/mL | MIC (strain ARC2780 (A. baumannii/calcoaceticus complex), OXA*, OXA-2, IMP-1): 4 µg/mL | MIC (strain ARC2782, OXA-66, OXA-23, TEM-1, PER-1): 0.125 µg/mL | MIC (strain ARC2788, OXA-65, TEM-1): 0.125 µg/mL | MIC (strain ARC3484, TEM-1, OXA-23, OXA-64): 0.125 µg/mL | MIC (strain ARC3485, OXA-82): 0.25 µg/mL | MIC (strain ARC3486, OXA-72, OXA-66, TEM-1): 0.25 µg/mL | MIC (strain ARC3487, OXA-20, OXA-58, OXA-66): 0.25 µg/mL | MIC (strain ARC3488, OXA*, OXA-68): 2 µg/mL | MIC (strain ARC3489, OXA*, OXA-68): 0.25 µg/mL | MIC (strain ARC3490, TEM-1+, PSE-2, OXA-69): 0.5 µg/mL | MIC (strain ARC3491 (A. baumannii/calcoaceticus complex), OXA-215): 0.5 µg/mL | MIC (strain ARC3492, OXA-40, OXA-132, TEM-1): 0.25 µg/mL | MIC (strain ARC3493, OXA-40, OXA-66): 32 µg/mL | MIC (strain ARC3494, OXA-65): 0.5 µg/mL | MIC (strain ARC3495, OXA-40, OXA-109): 0.25 µg/mL | MIC (strain ARC3513, TEM-1, OXA-23, OXA-65): 1 µg/mL | MIC (strain ARC3515, OXA-64, OXA-58): 0.25 µg/mL | MIC (strain ARC3657, OXA-130): 0.5 µg/mL | MIC (strain ARC3658, OXA-66, PER-1, TEM-1, OXA-23): 0.25 µg/mL | MIC (strain ARC3659, OXA-23, OXA*): 0.25 µg/mL | MIC (strain ARC3882, OXA-23, NDM-1, OXA-10*): 0.125 µg/mL | MIC (strain ARC5073, OXA-23, TEM-1, OXA-64, PER-1): 0.125 µg/mL | MIC (strain ARC5074, GES*, TEM-1, OXA-51): 0.125 µg/mL | MIC (strain ARC5075, SHV-5, OXA-113): 0.25 µg/mL | MIC (strain ARC5076, TEM-1, OXA-23, OXA-66): 0.25 µg/mL | MIC (strain ARC5077, OXA*, OXA-72): 0.5 µg/mL | MIC (strain ARC5079, OXA-72, OXA-65): 0.125 µg/mL | MIC (strain ARC5080, OXA-71, OXA-40): 0.25 µg/mL | MIC (strain ARC5081, OXA-94, OXA-23): 0.125 µg/mL | MIC (strain ARC5082, OXA-66, OXA-23): 0.5 µg/mL | MIC (strain ARC5083, OXA-66, OXA-23): 0.125 µg/mL | MIC (strain ARC5084, IMP-4(B), OXA-58, OXA-65): 0.125 µg/mL | MIC (strain ARC5085, OXA*, TEM-1): 1 µg/mL | MIC (strain ARC5086, OXA*, TEM-1, OXA-72, OXA-66): 0.125 µg/mL | MIC (strain ARC5087, OXA-66, OXA-23): 0.25 µg/mL | MIC (strain ARC5088, OXA-20, OXA-58, OXA-66): 0.125 µg/mL | MIC (strain ARC5089, PER*, TEM-1, OXA-23, OXA-66): 0.125 µg/mL | MIC (strain ARC5091, OXA-82, OXA-23): 8 µg/mL | MIC (strain ARC5092, OXA-23, OXA-64): >32 µg/mL
